Measurements reported in patent publication US20200345862A1, “TRANSITION METAL-BASED FUNCTIONAL MOIETIES FOR PREPARING CELL TARGETING CONJUGATES” (priority 2017, published 2020).
Where two headings read alike, the source gives them in different places.

Details: HEPES pH 8.1, 47° C., 4 h
Description: To a mixture of water (101 μL) and 200 mM HEPES buffer (12.3 μL, pH 8.1) containing different concentrations of halide salts (0, 100, 500, 1000, and 2000 mM NaCl (for 4a; pH 8.1; the final concentrations of NaCl in the reaction mixtures were 0, 10, 50, 100, and 200 mM, respectively) or 0, 100, and 500 mM NaBr (for 5d; pH 8.1; the final concentrations of NaBr in the reaction mixtures were 0, 10, and 50 mM, respectively) or 0 and 100 mM NaI (for 6k; pH 8.1; the final concentrations of NaI in the reaction mixtures were 0 and 10 mM, respectively), [PtL2((Fe)DFO-suc-pip)(ethane-1,2-diamine)]^+ TFA^− (4a (L2=Cl), 5d (L2=Br) or 6k (L2=I)) (10.0 μL, 5 mM in 20 mM NaCl (4a) or 5 mM in water (5d and 6k), 5.0 eq.) was added. The samples were incubated in a thermoshaker at 47° C. for 1 h, 2 h, and 4 h, followed by the HPLC analysis at 430 nm.

[(Fe)DFO-pip-PtBr(ethane-1,2-diamine)]^+ TFA^− [5d]
concentration of the semi-final product after incubation (stability) ([NaBr]=50 mM, FIG. 5): 95%

[Pt((Fe)DFO-suc-pip)(ethane-1,2-diamine)I]^+ TFA^− [6k]
concentration of the semi-final product after incubation (stability) ([NaI]=10 mM, FIG. 6): 98%
